Data published in patent US6964957B2, “Fused pyrazole compounds, pharmaceutical compositions, and methods for modulating or inhibiting ERAB or HADH2 activity” (Agouron Pharmaceuticals, Inc., priority 2000, dated 2005).
pIC50: −log10 of the molar value.

Tests used:
[1] = target: T1, ERAB (L-3-hydroxyacyl-CoA dehydrogenase) (Homo sapiens, UniProt Q99714); assay: ERAB enzyme assay (loss of NADH absorbance at 340 nm, acetoacetyl-CoA as substrate); type: biochemical; details: 2.5 nM enzyme preincubated with inhibitor 400 seconds at 30° C., pH 7.5, 36 uM NADH, 2% DMSO; started with acetoacetyl-CoA (38 uM)
T1 sequence (Q99714 1-261): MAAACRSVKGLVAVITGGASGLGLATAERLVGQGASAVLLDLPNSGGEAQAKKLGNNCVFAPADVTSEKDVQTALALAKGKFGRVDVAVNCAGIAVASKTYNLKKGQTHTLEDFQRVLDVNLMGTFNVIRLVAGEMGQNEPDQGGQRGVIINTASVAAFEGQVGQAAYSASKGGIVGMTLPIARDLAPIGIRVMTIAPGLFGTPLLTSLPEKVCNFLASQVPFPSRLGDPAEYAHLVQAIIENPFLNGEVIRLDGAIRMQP
Procedure: The activity of ERAB (L-3-hydroxyacyl-CoA dehydrogenase) in the reverse direction was determined by a modified version of a method previously described (Binstock et al., Methods Enzymol., 71, 403-411 (1981)). This method is based on the enzyme-catalyzed loss of NADH absorbance at 340 nm with a change in the millimolar extinction coefficient of 6.22 mM^−1 cm^−1. The IC50 value for compounds of the Formula I were determined spectrophotometrically by monitoring the […] with acetoacetyl-CoA as substrate and are reported in Table 1. Assay conditions were 25 mM MOPS, 250 mM NaCl, 2% DMSO, 2.5 mM TCEP, pH 7.5, 30° C. NADH and ERAB were included at 40 uM and 2.5 nM, respectively. Stock solutions of ERAB, prepared in assay buffer, were 1 uM and contained 100 uM NADH for enzyme stability. The assay was run as follows: Enzyme (2.5 nM) was preincubated with inhibitor (without acetoacetyl-CoA present) for 400 seconds at 30° C. in the presence of 36 uM NADH, 25 mM MOPS, pH 7.5, 250 mM NaCl, 2%(v/v) DMSO, and 2.5 mM TCEP. The reaction was initiated by addition of substrate (acetoacetyl-CoA) (38 uM). Reduction of NADH was monitored at 340λ. Initial rates were calculated over a time frame where less than 10% of substrates had been consumed in an uninhibited reaction. For Ki, app determination, inhibitors were added during the preincubation stage from DMSO stock solutions for a final and constant 2% DMSO concentration. Initial rates were calculated and fitted, using non-linear fitting techniques, to the Michaelis equation for enzyme inhibition. The IC50 value was determined by non-linear regression analysis using KaleidaGraph (obtained from Synergy Software, Reading, Pa.).

Row | Compound | melting point [°C] | pIC50 [1]
1 | CC(c1ccccc1)n1cnc2[nH]ncc2c1=O (stereo not shown) [LVII, 5-(1-Phenyl-ethyl)-1,5-dihydro-pyrazolo[3,4-d]pyrimidine-4-one] | 210 to 214 | 3.31
2 | CC(c1ccccc1)n1cnc2[nH]ncc2c1=S (stereo not shown) [LVIIIa, 5-(1-Phenyl-ethyl)-1,5-dihydro-pyrazolo[3,4-d]pyrimidine-4-thione] | 170 to 174 | 4.66
3 | O=C(C(c1ccccc1)n1cnc2[nH]ncc2c1=O)N1CCCCCC1 (stereo not shown) [L] | – | 5.15
4 | O=C(OC1CCCCC1)C(c1ccccc1)n1cnc2[nH]ncc2c1=S (stereo not shown) [XIIa, 2-Phenyl-(4-thioxo-1,4-dihydro-pyrazolo[3,4-d]pyrimidin-5-yl)-acetic acid cyclohexyl ester] | 170 to 173 | 5.92
5 | O=C(O)C(c1ccccc1)n1cnc2[nH]ncc2c1=S (stereo not shown) [XIVa, 2-Phenyl-(4-thioxo-1,4-dihydro-pyrazolo [3,4-d]pyrimidin-5-yl)acetic acid] | 95 to 98 | 3.29
6 | O=C(OC1CCCCC1)C(c1ccccc1)n1cnc2[nH]ncc2c1=O (stereo not shown) [XIa, (4-Oxo-1,4-dihydro-pyrazolo[3,4-d]pyrimidin-5-yl)-phenyl-acetic acid cyclohexyl ester] | 176 to 180 | 4.52
7 | O=C(C(c1ccccc1)n1cnc2[nH]ncc2c1=S)N1CCCCCC1 (stereo not shown) [XVIa, 1-Azepan-1-yl-2-phenyl-2-(4-thioxo-1,4-dihydro-1,4-dihrdropyrazolo[3,4-d]pyrimidin-5-yl)-ethanone] | – | 7.01
8 | CON(C)C(=O)C(c1ccccc1)n1cnc2[nH]ncc2c1=S (stereo not shown) [XVIb, N-Methoxy-N-methyl-2-phenyl-2-(4-thioxo-1,4-dihydro-1,4-dihydro-pyrazolo[3,4-d]pyrimidin-5-yl)-ethanone] | 82 to 86 | 5.82
9 | O=C(C(c1ccccc1)n1cnc2[nH]ncc2c1=S)N1CCCC(O)C1 (stereo not shown) [XVIc, 1-(3-Hydroxy-piperidin-1-yl)-2-phenyl-2-(4-thioxo-1,4-dihydro-1,4-dihydro-pyrazolo[3,4-d]pyrimidin-5-yl)-ethanone] | – | 5.74
10 | O=C(C(c1ccccc1)n1cnc2[nH]ncc2c1=S)N1CCCCCCC1 (stereo not shown) [XVIe, 1-Azocan-1-yl-2-phenyl-2-(4-thioxo-1,4-dihydro-1,4-dihydropyrazolo[3,4-d]pyrimidin-5-yl)-ethanone] | 92 to 95 | 7.02
11 | O=C(C(c1ccccc1)n1cnc2[nH]ncc2c1=S)N1CCC(O)(c2ccccc2)CC1 (stereo not shown) [XVIf, 1-(4-Hydroxy-4-phenyl-piperidin-1-yl)-2phenyl-2-(4-thioxo-1,4-dihydro-1,4-dihydro-pyrazolo[3,4-d]pyrimidin-5-yl)-ethanone] | 142 to 146 | 7.09
12 | O=C(C(c1ccccc1)n1cnc2[nH]ncc2c1=S)N1CCC(O)(c2ccc(Br)cc2)CC1 (stereo not shown) [XVIg] | 155 to 160 | 7.09
13 | CC(=O)C1(c2ccccc2)CCN(C(=O)C(c2ccccc2)n2cnc3[nH]ncc3c2=S)CC1 (stereo not shown) [XVIh, 1-(4-Acetyl-4-phenyl-piperidin-1-yl)-2-phenyl-2-(4-thioxo-1,4-dihydro-pyrazolo[3,4-d]pyrimidin-5-yl)-ethanone] | – | 6.12
14 | O=C(C(c1ccccc1)n1cnc2[nH]ncc2c1=S)N1CCN(c2ccccn2)CC1 (stereo not shown) [XVIi, 2-Phenyl-1-(4-pyridin-2-yl-piperazin-1-yl)-2-(4-thioxo-1,4-dihydro-pyrazolo[3,4-d]pyrimidin-5-yl)-ethanone] | 242 to 246 | 6.41
15 | O=C(C(c1ccccc1)n1cnc2[nH]ncc2c1=S)N1CCN(c2ccccc2)CC1 (stereo not shown) [XVIj, 2-Phenyl-1-(4-phenyl-2-yl-piperazin-1-yl)-2-(4-thioxo-1,4-dihydro-pyrazolo[3,4-d]pyrimidin-5-yl)-ethanone] | 241 to 245 | 6.66
16 | COc1ccc(N2CCN(C(=O)C(c3ccccc3)n3cnc4[nH]ncc4c3=S)CC2)cc1 (stereo not shown) [XVIk, 1-[4-(4-Methoxy-phenyl)-piperazin-1-yl]-2-phenyl-2-(4-thioxo-1,4-dihydro-pyrazolo[3,4-d]pyrimidin-5-yl)-ethanone] | 114 to 118 | 6.52

Now from value to molecule:

Row | melting point [°C] | pIC50 [1] | Compound
17 | 138 to 142 | 6.55 | O=C(C(c1ccccc1)n1cnc2[nH]ncc2c1=S)N1CCC(O)(c2ccccn2)CC1 (stereo not shown) [XVIm, 1-(4-Hydroxy-3′,4′,5′,6′-tetrahydro-2H-[2,4]bipyridinyl-1′-yl]-2-phenyl-2-(4-thioxo-1,4-dihydro-pyrazolo[3,4-d]pyrimidin-5-yl)-ethanone]
18 | 98 to 102 | – | CCCCC1(O)CCN(C(=O)C(c2ccccc2)n2cnc3[nH]ncc3c2=S)CC1 (stereo not shown) [XVIn, 1-(4-Butyl-4-hydroxy-piperidin-1-yl)-2-phenyl-2-(4-thioxo-1,4-dihydro-pyrazolo[3,4-d]pyrimidin-5-yl)-ethanone]
19 | 140 to 144 | 6.68 | CC1(O)CCN(C(=O)C(c2ccccc2)n2cnc3[nH]ncc3c2=S)CC1 (stereo not shown) [XVIp, 1-(4-Methyl-4-hydroxy-piperidin-1-yl)-2-phenyl-2-(4-thioxo-1,4-dihydro-pyrazolo[3,4-d]pyrimidin-5-yl)-ethanone]
20 | – | 5.55 | CCN(C(=O)C(c1ccccc1)n1cnc2[nH]ncc2c1=S)C(C)C (stereo not shown) [XVIq, N-Ethyl-N-isopropyl-2-phenyl-2-(4-thioxo-1,4-dihydro-pyrazolo[3,4d]pyrimidin-5-yl)-acetamide]
21 | 143 to 146 | 7.03 | CCN(CC)C(=O)C(c1ccccc1)n1cnc2[nH]ncc2c1=S (stereo not shown) [XVIr, N,N-Diethyl-2-phenyl-2-(4-thioxo-1,4-dihydro-pyrazolo[3,4-d]pyrimidin-5-yl)-acetamide]
22 | 116 to 120 | 6.39 | C=CCOc1cccc(C(C(=O)N2CCC(O)(c3ccccc3)CC2)n2cnc3[nH]ncc3c2=S)c1 (stereo not shown) [XVIs, 2-(3-Allyoxy-phenyl)-1-(4-hydroxy-4-phenyl-piperidin-1-yl)-2-(4-thioxo-1,4-dihydro-pyrazolo[3,4-d]pyrimidin-5-yl)-ethanone]
23 | 75 to 80 | 6.46 | C=CCOc1cccc(C(C(=O)N2CCCCCC2)n2cnc3[nH]ncc3c2=S)c1 (stereo not shown) [XVIt, 2-(3-Allyoxy-phenyl)-1-azepan-1-yl-2-(4-thioxo-1,4-dihydro-pyrazolo[3,4-d]pyrimidin-5-yl)-ethanone]
24 | – | 4.96 | C=CCOc1cccc(C(C(=O)OC2CCCCC2)n2cnc3[nH]ncc3c2=S)c1 (stereo not shown) [XXIII]
25 | – | 6.11 | O=C(C(c1ccccc1)n1cnc2[nH]ncc2c1=S)N1CCCCC1 (stereo not shown) [XXVa]
26 | – | 6.67 | O=C(C(c1ccccc1)n1cnc2[nH]ncc2c1=S)N1CCC(c2ccccc2)CC1 (stereo not shown) [XXVb]
27 | – | 7.29 | O=C(C(c1cccc(O)c1)n1cnc2[nH]ncc2c1=S)N1CCCCCC1 (stereo not shown) [XXVc]
28 | – | 7.15 | CCCCC1(O)CCN(C(=O)C(c2ccccc2)n2cnc3[nH]ncc3c2=S)CC1 (stereo not shown) [XXVd]
29 | – | 6.13 | CN(C(=O)C(c1ccccc1)n1cnc2[nH]ncc2c1=S)c1ccccc1 (stereo not shown) [XXVe]
